Test results: ChEMBL document CHEMBL4627372, “Spiroseoflosterol, a Rearranged Ergostane-Steroid from the Fruiting Bodies of Butyriboletus roseoflavus” (J Nat Prod, 2020)
pIC50: −log10 of the molar value. Activity calls are given as the source filed them. The rule behind the calls is not given here.

Assays:
[1] = system: HepG2; experiment: Cytotoxicity against human HepG2 cells at 10 uM after 48 hrs by MTT assay; type: functional, cell-based
[2] = Selectivity ratio of IC50 for human LO2 cells to IC50 for human HepG2 cells; type: toxicity; settings: LO2 cells versus HepG2 cells, read-out: Ratio IC50
[3] = system: L02; experiment: Cytotoxicity against human LO2 cells after 48 hrs by MTT assay; type: cell-based; settings: L02, 48 h
[4] = system: HepG2; experiment: Cytotoxicity against human HepG2 cells after 48 hrs by MTT assay; type: functional, cell-based; settings: HepG2, 48 h
[5] = Selectivity ratio of IC50 for human LO2 cells to IC50 for human Huh7S1 cells; type: toxicity; settings: LO2 cells versus Huh7S1 cells, read-out: Ratio IC50
[6] = Cytotoxicity against human Huh7S1 cells after 48 hrs by MTT assay; type: functional, cell-based

| SMILES | Activity [1] | selectivity ratio [2] | pIC50 [3] | pIC50 [4] | selectivity ratio [5] | pIC50 [6] |
| --- | --- | --- | --- | --- | --- | --- |
| CC(C)[C@@H](C)/C=C/[C@@H](C)[C@H]1CCC2=C3C=C[C@H]4C[C@@H](O)CC[C@]4(C)[C@H]3CC[C@@]21C | inactive | – | – | – | – | – |
| CNC(=O)c1cc(Oc2ccc(NC(=O)Nc3ccc(Cl)c(C(F)(F)F)c3)cc2)ccn1 [SORAFENIB] | – | 1.6 | 5.04 | 5.26 | – | – |
| CC(C)[C@@H](C)/C=C/[C@@H](C)[C@H]1CC[C@H]2C(=O)[C@@]3(CC[C@]12C)[C@@H](O)C[C@H]1C[C@@H](O)CC[C@@]13C | – | 2.5 | 4.64 | 5.04 | 3.7 | 5.21 |
